# Data reported in patent US20260232752A1, “COMBINATION THERAPY METHODS, COMPOSITIONS AND KITS” (Accure Therapeutics, S.L., priority 2019, published 2026).
# Tests used:
# [1] = tested on: experimental autoimmune encephalomyelitis (EAE) mouse model; assay: Study EAE-C03: clinical score in EAE mouse model, treatment in chronic phase; type: in vivo; conditions: after 17 days of treatment, treatment started in chronic phase
# Method: Three in vivo studies supporting the medical plausibility of BN201 in the treatment of MS and optic neuritis were performed. These studies sought to test the neuroprotective effect of BN201 and were conducted in the neurodegenerative and demyelinating experimental autoimmune encephalomyelitis (EAE) mouse model. Immune response to Myelin Basic Protein (MBP) or Myelin Proteolipid Protein (PLP) induces lesions located predominantly in the spinal cord whereas immunization with Myelin Oligodendrocyte Glycoprotein (MOG) generates lesions located predominantly in the optic nerve and spinal cord. In the literature, the EAE model is commonly used as a model of MS and optic neuritis, since it can cause irreversible visual loss (Kezuka et al, Analysis of the pathogenesis of experimental autoimmune optic neuritis. J Biomed Biotechnol. 2011; 2011:294046; Guo et al, Decreased neural stem/progenitor cell proliferation in mice with chronic/nonremitting experimental autoimmune encephalomyelitis. Neurosignals. 2010; 18(1):1-8).
# Study EAE-C03: daily i.p. administration of BN201 at two different concentrations was tested versus placebo according to the following experimental design: • EAE affected placebo-treated animals (pathological control group); • EAE-affected animals treated with BN201 at 50 mg/kg dose and • EAE-affected animals treated with BN201 at 100 mg/kg dose. […]
# [2] = tested on: experimental autoimmune encephalomyelitis (EAE) mouse model; assay: Study EAE-C06: dose response of BN201, clinical score in EAE mouse model; type: in vivo; conditions: almost all days of observation/treatment (Day 2 to day 30)
# Method: A third experiment (Study EAE-C06) to test dose response of BN201 was then performed using the same mouse model.
# Study EAE-C06: five different concentrations of BN201: 12.5 mg/kg, 25 mg/kg, 50 mg/kg, 100 mg/kg, and 150 mg/kg. Also sham, pathological control and FTY720 (2 mg/kg) comparator groups were included in the experiment. All groups were administered daily.
# Clinical scores were assigned to assess disease severity using the following scale: 0=normal; 0.5=Partial tail paralysis; 1=Complete tail paralysis; 1.5=Tail paralysis and loss of righting reflex; 2=Partial hind limb paralysis/paralysis of one limb; 2.5=One limb paralysis and partial loss of activity of one other limb; 3=Bilateral hind limb paralysis; 4=Moribund; 5=exitus.
# Therapeutic treatment was initiated on day 12 once each mouse started showing complete tail paralysis (Score 1).
# Data are depicted in FIG. 1 (C), wherein the clinical score for each of the tested groups is plotted per day after disease onset.
# [3] = tested on: EAE in C57BL6 mice immunized with MOG35-55; assay: Example 4: BN201 and STAT3 inhibitor combination, chronic phase of EAE; type: in vivo, mouse; conditions: BN201 50 mg/kg i.p. alone (optimal), from day 34 to day 54
# Method: Effect during the chronic phase of the disease in the animal model of Multiple Sclerosis (i.e., EAE in C57BL6 mice immunized with MOG35-55)
# Efficacy and safety of combination therapy with optimal doses of BN201 (50 mg/kg) and S31-201 (5 mg/kg) in the progression of chronic EAE in mice.
# Starting the chronic phase of the disease (by day 34) mice were administered: • the STAT3 inhibitor S31-201 (group A, 7 mice), • BN201 (group B, 6 mice), or • a combination thereof (group C, 6 mice) once a day for six days per week at optimal dosages (5 mg/kg for S31-201, 50 mg/kg for BN201).
# S31-201 and BN201 were administered via i.p. injection in a saline vehicle at a volume of 5 mL/kg. Control mice received vehicle only via both oral and i.p. injection (group D, 6 mice) or nothing at all (group E, 2 mice). Mice were treated from day 34 (chronic EAE stage) until the end of the experiment on day 54.
# The combination of BN201 and the STAT3-inhibitor S31-201 was evaluated for its effect during the chronic phase of the disease in the animal model of Multiple Sclerosis (i.e., EAE in C57BL6 mice immunized with MOG35-55). The objective of the study was to evaluate the efficacy and safety of combination therapy with optimal doses of BN201 (50 mg/kg) and 531-201 (5 mg/kg) in the progression of chronic EAE in mice. […]
smiles,measurement,setting,value
"CC(C)CN(CC(=O)N(CCCN1CCCC1=O)CC(N)=O)C(=O)CNCCc1ccccc1F [BN201, [N-(2-(2′-Fluorophenyl)ethyl)glycyl]-[N-(2-methylpropyl)glycyl]-N-[3-(2′-oxopyrrolidinyl)-propyl]glycinamide]",clinical score compared to placebo,[1]; 50 mg/kg daily i.p.,significantly decreased the clinical score
same,clinical score compared to placebo,[1]; 100 mg/kg daily i.p.,significantly decreased the clinical score
same,clinical score,[2]; 50 mg/kg daily,significant amelioration of the clinical score
same,clinical score,[2]; 100 mg/kg daily,significant amelioration of the clinical score
same,course of EAE in chronic phase (clinical score),[3],not efficacious
